# Marks after values point to notes of the source that are not given here.
# Tests used:
# [1] = system: murine lung carcinoma, M109; test: In vivo antitumor testing, sc M109 tumor model; set-up: species or system mice; conditions: for iv activity compared to concomitantly evaluated iv paclitaxel: scM109 tumors
# Description: (§1) Animals. Conventional or athymic (“nude”) mice, and nude rats, were implanted subcutaneously (sc) with tumor brei or fragments. Murine tumor were implanted in conventional mice, human tumors were implanted into nude mice or rats.
# (§2) Tumors. A variety of tumors have been utilized but not all of them have necessarily been used to evaluate each and every taxane. The tumors utilized most often included the murine lung carcinoma, M109, the murine mammary carcinoma, MAM 16/C, the human ovarian carcinoma. A2780, the human colon tumors, HCT-116 and HCT-116/pk.
# (§3) Treatments are initiated at differing times post-implantation depending upon the desired stringency of the test system; in general, the greater the delay post-tumor implantation, the larger the tumors at the start of therapy. Typically, treatments were begun in the M109 tumor model on Day 4 post-tumor implant, Day 7 in the MAM 16/C tumor model, and when tumors were between 100 and 500 mg in size (typically Day 7 to Day 12 post-tumor implant) for each of the human tumor xenograft models (e.g., A2780, HCT-116 and HCT-116/pk). Group sizes were typically 8 per treatment and control groups in mouse experiments and 7 per treatment and control groups in rat experiments.
# Treatments for taxanes administered orally (po) were done by gavage using a vehicle consisting of 10% ethanol +10% Cremophor EL+80% water. The volume of liquid administered was 0.01 ml per gram of body weight for mice, and 0.005 ml per gram of body weight for rats. A typical mouse experiment would involve the evaluation of each test compound at three different dose levels, but only one to three test groups per compound were included in rat experiments. In every experiment, intravenously (iv) administered paclitaxel was included as a reference drug.
# (§4) Paclitaxel was administered iv on treatment schedules and doses established from experience as being optimal, or near optimal, for the particular tumor, tumor staging, and host animal under study. It was given once daily, for five consecutive daily treatments (i.e., qd×5), when evaluated in the M109 and MAM 16/C tumor models, once daily every other day for five treatments (i.e., q2d×5) when administered to mice bearing human tumors, and once daily every other or every fourth day for five or three treatments, respectively (i.e., q2d×5 or q4d×3), to rats.
# (§5) Orally administered taxanes were evaluated on the same treatment schedules just described for iv administered paclitaxel, plus other treatment schedules such as daily for nine days, or every eight days for two treatments.
# Antitumor activity was assessed by determining the size of tumors in all treated and control experimental animals over time. Each animal was individually identified and the growth of the tumor implanted into each animal was measured once or twice weekly using a calipers. The difference in median time for tumors in treated (T) and control (C) groups to reach a predetermined size (e.g., 500 or 1,000 milligrams) was calculated, and assessments of absolute and relative antitumor effects (e.g., between compounds) were made on the basis of the delays in time to reach predetermined tumor target sizes. Animals with tumors of 35 mg or less at the termination of an experiment were termed “cures”. Experiments were terminated typically after a period of time had elapsed post-treatment that was at least 10 times the tumor volume doubling time (TVDT) of the median tumor growth in control animals as assessed prior to their reaching the predetermined tumor target size in each experiment. Activity in a test group was defined as having caused a delay in tumor growth (median time to reach tumor target size) relative to the concomitant control tumor growth (i.e. T-C) of 3.32 times the TVDT. Activity was expressed in log cell kill which was equal to (T-C)/(TVDT×3.32). Toxicity was determined by measuring the average body weight of all animals in an experiment prior to, and soon after, any treatments in the experiment. […]
# [2] = system: HCT-116 human colon carcinoma cells; test: Cytotoxicity, MTS assay; type: cell-based; conditions: MTS procedure, 72 hours incubation
# Description: (§6) Cytoxicity was assessed in HCT-116 human colon carcinoma cells by either using an XTT or MTS procedure.
# Cytoxicity was assessed in HCT-116 human colon carcinoma cells by MTS (3-(4,5-dimethylthiazol-2-yl)-5-(3-carboxymethoxyphenyl)-2-(4-sulphenyl)-2H-tetrazolium, inner salt) assay as reported in T. L. Riss, et. al., “Comparison of MTT, XTT, and a novel tetrazolium compound MTS for in vitro proliferation and chemosensitivity assays.” Mol. Biol. Cell 3 (Suppl.):184a, 1992. Cells were plated at 4,000 cell/well in 96 well microtiter plates and 24 hours later drugs were added and serial diluted. The cells were incubated at 37° form 72 hours at which time the tetrazolium dye, MTS at 333 μg/ml (final concentration), in combination with the electron coupling agent phenazine methosulfate at 25 μM (final concentration) was added. A dehydrogenase enzyme in live cells reduces the MTS to a form that absorbs light at […] which can be quantitated spectrophotometrically. The greater the absorbance the greater the number of live cells. The results are expressed as an IC50, which is the drug concentration required to inhibit cell proliferation (i.e. absorbance at 450 nm) to 50% of that of untreated control cells. The IC50 values for compounds evaluated in this assay are evaluated in Table I.
# [3] = system: human ovarian carcinoma A2780; test: In vivo antitumor testing, A2780 xenograft model; set-up: species or system nude mice
# Description: as §1, §2, §3
# Treatments for taxanes administered orally (po) were done by gavage using a vehicle consisting of 10% ethanol +10% Cremophor EL+80% water. […]
# as §4, §5
# Antitumor activity was assessed by determining the size of tumors in all treated and control experimental animals over time. Each animal was individually identified and the growth of the tumor implanted into each animal was measured once or twice weekly using a calipers. The difference in median time for tumors in treated (T) and control (C) groups to reach a predetermined size (e.g., 500 or 1,000 milligrams) was calculated, and assessments of absolute and relative antitumor effects (e.g., between compounds) were made on the basis of the delays in time to reach predetermined tumor target sizes. […]
# [4] = system: HCT-116 human colon carcinoma cells; test: Cytotoxicity, XTT assay; type: cell-based; conditions: XTT procedure, 72 hours incubation
# Description: as §6
# Cytotoxicity was assessed in HCT-116 human colon carcinoma cells by XTT (2,3-bis(2-methoxy-4-nitro-5-sulfpphenyl)-5-[(phenylamino)carbonyl]2H-tetrazolium hydroxide) assay as reported in D. A. Scudiero, et al., “Evaluation of soluble tetrazolium/formazan assay for cell growth and drug sensitivity in culture using human and other tumor cell lines,” Cancer Res. 48:4827-4833, 1988. Cells were plated at 4000 cells/well in 96 well microtiter plates and 24 hours later drugs were added and serial diluted. The cells were incubated at 37° C. for 72 hours at which time the tetrazolium dye, XTT, was added. A dehydrogenase enzyme in live cells reduces the XTT to a form that absorbs light at 450 nm which can be quantitated spectrophotometrically. The greater the absorbance, the greater the number of live cells. The results are expressed as an IC50, which is the drug concentration required to inhibit cell proliferation (i.e., absorbance at 450 nm) to 50% of that of untreated control cells.
# [5] = human or animal models, prior art; cited from earlier work
compound,measurement,setting,value
3′N-(2-furoyl)-7-deoxy paclitaxel [Ib],IV Activity in LCK,"[1]; iv, 20 mg/kg per injection, M109",0.7 LCK
same,iv activity compared to concomitantly evaluated iv paclitaxel,[1]; iv,equiactive to paclitaxel
same,oral activity,"[1]; oral, M109 model",active orally
same,PO Activity in LCK,"[1]; po, 40 mg/kg per administration, M109",0.7 LCK
same,IC50,[2],0.85 nM
same,oral activity compared to optimal iv paclitaxel,"[3]; oral, A2780 model",equallyactive if not better
same,PO Activity in LCK,"[3]; po, 85 mg/kg per administration, A2780",>7 LCK
same,Cures (mice cured / tested),"[3]; po, 85 mg/kg per administration, A2780, cure = tumor of 35 mg or less at termination",(1/8)**
7-deoxy-3′-(4-hydroxyphenyl)-3′N-t-butoxycarbonyl paclitaxel [Compound Ia],IV Activity in LCK,"[1]; iv, 13 mg/kg per injection, M109, log cell kill = (T-C)/(TVDT×3.32)",1.4 LCK
same,iv activity compared to concomitantly evaluated iv paclitaxel,[1]; iv,surprising activity
same,IC50,[2],4.3 nM
10-(2-amino)benzoyl-7-deoxy paclitaxel [Ih],IC50,[4],102 nM
"CC(=O)OC12COC1CCC1(C)C(=O)C(OC(=O)N3CCOCC3)C3=C(C)C(OC(=O)C(O)C(NC(=O)c4ccccc4)c4ccccc4)CC(O)(C(OC(=O)c4ccccc4)C12)C3(C)C (stereo not drawn) [Ic, 10-Morpholinoyl-7-deoxy paclitaxel]",IC50,[4],1.49 nM
"CCCCCCCC(=O)OC1C(=O)C2(C)CCC3OCC3(OC(C)=O)C2C(OC(=O)c2ccccc2)C2(O)CC(OC(=O)C(O)C(NC(=O)c3ccccc3)c3ccccc3)C(C)=C1C2(C)C (stereo not drawn) [Id, 10-Octanoyl-7-deoxy paclitaxel]",IC50,[4],98.2 nM
"CC(=O)OC12COC1CCC1(C)C(=O)C(OC(=O)COc3ccccc3)C3=C(C)C(OC(=O)C(O)C(NC(=O)c4ccccc4)c4ccccc4)CC(O)(C(OC(=O)c4ccccc4)C12)C3(C)C (stereo not drawn) [Ie, 10-Phenoxyacetyl-7-deoxy paclitaxel]",IC50,[4],8.09 nM
"CC(=O)OC12COC1CCC1(C)C(=O)C(OC(=O)c3ccccc3[N+](=O)[O-])C3=C(C)C(OC(=O)C(O)C(NC(=O)c4ccccc4)c4ccccc4)CC(O)(C(OC(=O)c4ccccc4)C12)C3(C)C (stereo not drawn) [If, 10-(2-Nitro)benzoyl-7-deoxy paclitaxel]",IC50,[4],13.3 nM
"CC(=O)OC12COC1CCC1(C)C(=O)C(OC(=O)C=Cc3ccccc3)C3=C(C)C(OC(=O)C(O)C(NC(=O)c4ccccc4)c4ccccc4)CC(O)(C(OC(=O)c4ccccc4)C12)C3(C)C (stereo not drawn) [Ig, 10-Cinnamoyl-7-deoxy paclitaxel]",IC50,[4],28.4 nM
"CC(=O)O[C@H]1C(=O)[C@@]2(C)[C@H]([C@H](OC(=O)c3ccccc3)[C@]3(O)C[C@H](OC(=O)[C@H](O)[C@@H](NC(=O)c4ccccc4)c4ccccc4)C(C)=C1C3(C)C)[C@]1(OC(C)=O)CO[C@@H]1C[C@@H]2O [Paclitaxel, paclitaxel, reference compound]",oral activity,[5],no oral activity
same,Optimal Activity of iv Paclitaxel,"[1]; iv, optimal dose and schedule (qd×5), M109, concomitantly evaluated",0.7 LCK
same,Optimal Activity of iv Paclitaxel,"[3]; iv, optimal dose and schedule (q2d×5), A2780, concomitantly evaluated",5.9 LCK
"CC(=O)O[C@@]12CO[C@@H]1C[C@H](O)[C@@]1(C)C(=O)[C@H](O)C3=C(C)[C@@H](OC(=O)[C@H](O)[C@@H](NC(=O)OC(C)(C)C)c4ccccc4)C[C@@](O)([C@@H](OC(=O)c4ccccc4)[C@H]21)C3(C)C [TAXOTERE®, docetaxel]",oral activity,[5],no oral activity
